The values that follow come from patent US9567339B2, “Primary carboxamides as BTK inhibitors” (AbbVie Inc., priority 2013, dated 2017).

BTK, recombinant human catalytic domain (aa 393-659), sequence (Q06187 393-659): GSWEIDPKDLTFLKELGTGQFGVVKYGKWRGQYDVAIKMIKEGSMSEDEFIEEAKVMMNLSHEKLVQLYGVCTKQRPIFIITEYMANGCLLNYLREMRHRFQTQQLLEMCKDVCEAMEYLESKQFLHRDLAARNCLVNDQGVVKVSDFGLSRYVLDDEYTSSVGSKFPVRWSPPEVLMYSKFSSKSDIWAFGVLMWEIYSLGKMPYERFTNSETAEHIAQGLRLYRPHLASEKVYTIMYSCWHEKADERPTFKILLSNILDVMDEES

One experiment concerns the target BTK, recombinant human catalytic domain (aa 393-659) (Homo sapiens (Human), UniProt Q06187). Briefly: In vitro BTK kinase activity measured by time-resolved fluorescence resonance energy transfer (trFRET). Format: biochemical. The settings on record: read-out: Btk IC50.
`Cc1c(NC(=O)C(F)(F)Cl)cccc1-c1ccc(C(N)=O)c2[nH]c(C3=CCN(S(C)(=O)=O)CC3)cc12` [D.7.7]: the half-maximal inhibitory concentration (IC50) was less than 100 nM. Consider `C=CC(=O)N1CCC[C@H](c2ccc(C(N)=O)c3[nH]c(C)cc23)C1` [E.9.8], for which the IC50 was less than 100 nM. The same measure, in the same setting: in the case of `Cc1nc(C(=O)NC2CCCN(c3ccc(C(N)=O)c4[nH]c(C5=CCN(S(C)(=O)=O)CC5)cc34)C2)co1` (stereo not drawn) [O.1.5*] it was less than 100 nM.

For `CC(C)(C)c1cc(C(=O)N[C@@H]2CCCN(c3ccc(C(N)=O)c4[nH]ccc34)C2)no1` [O.1.10*], the IC50 lay in the range of 1000 to 10000 nM. The same measure, in the same setting: in the case of `Cc1ccc(-c2cc3c(Cc4c(Cl)cccc4Cl)ccc(C(N)=O)c3[nH]2)cc1` [U.1.1] it was 1000 to 10000 nM; in that of `CCOC(=O)N1CC=C(c2cc3c(-c4cccc(-n5cnc6ccccc6c5=O)c4C)ccc(C(N)=O)c3[nH]2)C1` [E.6.1], less than 100 nM. With `C=CC(=O)N1CCC[C@@H](c2cnc(C(N)=O)c3sc(-c4cnn(C)c4)nc23)C1` [E.9.37], the IC50 was less than 100 nM.

For `C=CC(=O)Nc1cc(C#N)cc(-c2ccc(C(N)=O)c3[nH]ccc23)c1` [E.1.26], the IC50 is 100 to 1000 nM. Regarding `C=CC(=O)N1CC(C)(N(C)c2ccc(C(N)=O)c3[nH]ccc23)C1` [E.9.35], the IC50 is less than 100 nM. On the same count and under the same terms, in the case of `Cc1cc2c(N(C)C3CN(C#N)C3)ccc(C(N)=O)c2[nH]1` [J.3.1] it was 100 to 1000 nM.

As to `Cc1c(NC(=O)COc2ccc(F)cc2)cccc1-c1ccc(C(N)=O)c2[nH]c(C3=CCN(S(C)(=O)=O)CC3)cc12` [D.7.11], the IC50 is less than 100 nM. In the case of `CCC(=O)Nc1cccc(-c2ccc(C(N)=O)c3[nH]c(C4=CCN(S(C)(=O)=O)CC4)cc23)c1C` [D.7.41], the IC50 is less than 100 nM.

For the compound `C=CC(=O)N1CC[C@H](c2ccc(C(N)=O)c3[nH]c(-c4cc5n(n4)CCOC5)cc23)C1` [E.9.26], the IC50 is less than 100 nM.

As for `CC(=O)C(=O)NCc1cccc(-c2ccc(C(N)=O)c3[nH]ccc23)c1` [E.7.2], the IC50 was 100 to 1000 nM. With `C=CC(=O)N1CC[C@H](c2ccc(C(N)=O)c3[nH]c(C)cc23)C1` [E.9.41*], the IC50 lay in the range of 100 to 1000 nM. On the same count and under the same terms, next, `C=CC(=O)N(C)c1cccc(-c2ccc(C(N)=O)c3[nH]ccc23)c1` [E.1.5]: less than 100 nM; `Cc1c(NC(=O)/C=C/CN2CCN(C)CC2)cccc1-c1ccc(C(N)=O)c2[nH]ccc12` [J.1.6]: 1000 to 10000 nM; `Cc1c(NC(=O)c2cccnc2)cccc1-c1ccc(C(N)=O)c2[nH]c(C3=CCN(S(C)(=O)=O)CC3)cc12` [D.7.39]: less than 100 nM. With `C=CC(=O)Nc1cc(F)c(F)c(-c2ccc(C(N)=O)c3[nH]ccc23)c1` [E.1.21], the IC50 is less than 100 nM.

Consider `C=CC(=O)N(Cc1nccs1)c1cccc(-c2ccc(C(N)=O)c3[nH]c(C4=CCN(S(C)(=O)=O)CC4)cc23)c1C` [E.1.7], for which the IC50 was less than 100 nM. Same read-out and setting: next, `CS(=O)(=O)N1CC=C(c2cc3c(N4CCC[C@@H](n5ccn6ccnc6c5=O)C4)ccc(C(N)=O)c3[nH]2)CC1` [O.1.4*]: less than 100 nM. Still for that read-out and setting: in the case of `C=CC(=O)Nc1ccc(F)c(-c2ccc(C(N)=O)c3[nH]ccc23)c1F` [E.1.20] it was less than 100 nM. Still for that read-out and setting: in the case of `C=CC(=O)N1CCOC[C@H](c2ccc(C(N)=O)c3[nH]ccc23)C1` [E.9.39] it was 1000 to 10000 nM. In the case of `Cc1c(NC(=O)COc2ccc(C#N)cc2)cccc1-c1ccc(C(N)=O)c2[nH]c(C3=CCN(S(C)(=O)=O)CC3)cc12` [D.7.13], the IC50 was less than 100 nM.

As for `Cn1cc(-c2cc3c(N4CCC[C@@H](NC(=O)c5ccc(C(F)(F)F)cc5)C4)ccc(C(N)=O)c3[nH]2)cn1` [O.1.21*], the IC50 was 100 to 1000 nM. Same read-out and setting: in the case of `C=CC(=O)Nc1cccc(-c2ccc(C(N)=O)c3[nH]c(C=C)cc23)c1` [E.1.18] it was less than 100 nM; in that of `Cc1c(NC(=O)c2cnsc2)cccc1-c1ccc(C(N)=O)c2[nH]c(C3=CCN(S(C)(=O)=O)CC3)cc12` [D.7.38], less than 100 nM. For the compound `C=CC(=O)N1CC(N(C)c2ccc(C(N)=O)c3[nH]c([C@H]4CCOC4)cc23)C1` [Example 5.2], the IC50 is less than 100 nM. Still for that read-out and setting: next, `CC(=O)NCc1ccccc1-c1cc2c(-c3cccc(NC(=O)c4nccs4)c3C)ccc(C(N)=O)c2[nH]1` [E.4.3]: 100 to 1000 nM.

As to `C=CC(=O)N1CCC[C@H](c2cnc(C(N)=O)c3[nH]ccc23)C1` [E.9.52], the IC50 fell in the range of 100 to 1000 nM.

Staying with this experiment, now noted: trFRET, 0.001 mM ATP, biotin-TYR1 peptide substrate; read-out: Btk IC50.
Take `C=CC(=O)N1CC(N(C)c2cnc(C(N)=O)c3[nH]ccc23)C1` [Example 29, 4-((1-Acryloylazetidin-3-yl)(methyl)amino)-1H-pyrrolo[2,3-c]pyridine-7-carboxamide]: the IC50 was less than 100 nM. On the same count and under the same terms, in the case of `C=C(CN1CCOCC1)C(=O)Nc1cccc(-c2ccc(C(N)=O)c3[nH]ccc23)c1` [D.6.2] it was less than 100 nM; in that of `C=CC(=O)N1CCCC(c2ccc(C(N)=O)c3[nH]ccc23)C1` (stereo not drawn) [Example 25, 4-(1-Acryloylpiperidin-3-yl)-1H-indole-7-carboxamide], 100 to 1000 nM; in that of `C=CC(=O)N1CCc2cc(C(N)=O)c3[nH]ccc3c21` [Example 4, 1-Acryloyl-1,2,3,6-tetrahydropyrrolo[2,3-e]indole-5-carboxamide], 100 to 1000 nM. The same measure, in the same setting: in the case of `C=C(CC)C(=O)Nc1cccc(-c2ccc(C(N)=O)c3[nH]ccc23)c1C` [D.8.11] it was 1000 to 10000 nM; in that of `C=CC(=O)N[C@H]1CCC[C@H](c2ccc(C(N)=O)c3[nH]ccc23)C1` (relative stereo) [Example 9, 4-(trans-3-Acrylamidocyclohexyl)-1H-indole-7-carboxamide], 100 to 1000 nM; in that of `NC(=O)c1ccc(-c2cccc(NC(=O)/C=C/C(=O)O)c2)c2cc[nH]c12` [C.1, (E)-4-((3-(7-Carbamoyl-1H-indol-4-yl)phenyl)amino)-4-oxobut-2-enoic acid], 1000 to 10000 nM. Regarding `C=CC(=O)Nc1cccc(-c2ccc(C(N)=O)c3[nH]c(-c4ccc(C(N)=O)cc4)cc23)c1C` [A.1.45], the IC50 was less than 100 nM. Still for that read-out and setting: in the case of `Cc1c(NC(=O)c2nccs2)cccc1-c1ccc(C(N)=O)c2[nH]c(-c3cccnc3)cc12` [A.7.8] it was less than 100 nM.

With `CN1CCC=C(C(=O)Nc2cccc(-c3ccc(C(N)=O)c4[nH]ccc34)c2)C1` [E.2.2], the IC50 was 1000 to 10000 nM. For `CCNC(=O)/C=C\C(=O)Nc1cccc(-c2ccc(C(N)=O)c3[nH]ccc23)c1` [D.9.2], the IC50 was less than 100 nM. In the case of `C=CC(=O)Nc1cccc(-c2ccc(C(N)=O)c3[nH]c(-c4cccc(NC(C)=O)c4)cc23)c1C` [A.1.15], the IC50 was less than 100 nM. In the case of `C=CC(=O)N1CC([C@H](C)c2ccc(C(N)=O)c3[nH]ccc23)C1` [28 (S), (S)-4-(1-(1-Acryloylazetidin-3-yl)ethyl)-1H-indole-7-carboxamide], the IC50 was in the range of 100 to 1000 nM. Same read-out and setting: in the case of `C=CC(=O)Nc1cccc(-c2ccc(C(N)=O)c3[nH]c(-c4ccccc4)cc23)c1C` [A.1.33] it was less than 100 nM; in that of `Cc1c(NC(=O)c2nccs2)cccc1-c1ccc(C(N)=O)c2[nH]c(-c3ccccc3CNC(=O)COc3ccc(F)cc3)cc12` [D.1.7], 1000 to 10000 nM. The same measure, in the same setting: next, `C=CC(=O)Nc1cccc(-c2ccc(C(N)=O)c3[nH]c(-c4ccc(S(C)(=O)=O)cc4)cc23)c1C` [A.1.40]: less than 100 nM.

Regarding `C=CC(=O)Nc1cccc(-c2ccc(C(N)=O)c3[nH]c(-c4cccnc4OC)cc23)c1C` [A.1.18], the IC50 is less than 100 nM.

For `Cc1c(-c2ccc(C(N)=O)c3[nH]c(C4=CCN(S(C)(=O)=O)CC4)cc23)cccc1N(C(=O)c1ccc(C(F)F)cc1)C1COC1` [A.4.12], the IC50 is less than 100 nM. The same measure, in the same setting: next, `Cc1c(NC(=O)c2ccc(C3CC3)cc2)cccc1-c1ccc(C(N)=O)c2[nH]c(C3=CCN(S(C)(=O)=O)CC3)cc12` [A.4.16]: less than 100 nM; `Cc1ccc(-c2cc3c(-c4ccsc4)ccc(C(N)=O)c3[nH]2)cc1` [A.8.6]: 100 to 1000 nM; `CCOC(=O)/C=C/C(=O)Nc1cccc(-c2ccc(C(N)=O)c3[nH]ccc23)c1C` [D.8.1]: less than 100 nM.

In the case of `C=CS(=O)(=O)Nc1cccc(-c2ccc(C(N)=O)c3[nH]ccc23)c1` [I.1, 4-(3-(Vinylsulfonamido)phenyl)-1H-indole-7-carboxamide], the IC50 is less than 100 nM. The same measure, in the same setting: next, `Cc1ccc(NC(=O)c2nccs2)cc1-c1ccc(C(N)=O)c2[nH]c(-c3cccnc3)cc12` [A.7.7]: 1000 to 10000 nM; `Cc1c(N)cccc1-c1cnc(C(N)=O)c2[nH]ccc12` [Example 2, 4-(3-Amino-2-methylphenyl)-1H-pyrrolo[2,3-c]pyridine-7-carboxamide]: 1000 to 10000 nM. The same measure, in the same setting: next, `Cc1c(-c2ccc(C(N)=O)c3[nH]c(C4=CCN(S(C)(=O)=O)CC4)cc23)cccc1N(CCO)C(=O)c1ccc(C(F)F)cc1` [A.4.14]: less than 100 nM; `C=CC(=O)Nc1cccc(-c2ccc(C(N)=O)c3[nH]c(-c4cnn(C(C)C)c4)cc23)c1C` [A.1.4]: less than 100 nM; `Cc1ccc(-c2cc3c(-c4ccsc4)ccc(C(N)=O)c3[nH]2)cc1` [A.8.10]: 100 to 1000 nM. On the same count and under the same terms, next, `Cc1c(NC(=O)/C=C/CN(C)C)cccc1-c1ccc(C(N)=O)c2[nH]ccc12` [J.1, (E)-4-(3-(4-(Dimethylamino)but-2-enamido)-2-methylphenyl)-1H-indole-7-carboxamide]: 100 to 1000 nM; `NC(=O)c1ccc(-c2cccc(NC(=O)/C=C/C(=O)NC3CC3)c2)c2cc[nH]c12` [D.4.4]: 1000 to 10000 nM; `Cc1c(-c2ccc(C(N)=O)c3[nH]c(C4=CCN(C)C4)cc23)cccc1-n1cnc2ccccc2c1=O` [H.1, 2-(1-Methyl-2,5-dihydro-1H-pyrrol-3-yl)-4-(2-methyl-3-(4-oxoquinazolin-3(4H)-yl)phenyl)-1H-indole-7-carboxamide]: less than 100 nM. Consider `Cc1c(NCCO)cccc1-c1ccc(C(N)=O)c2[nH]c(C3=CCN(S(C)(=O)=O)CC3)cc12` [A.4.13], for which the IC50 was less than 100 nM. Same read-out and setting: in the case of `Cc1ccc(-c2cc3c(-c4c(C)noc4C)ccc(C(N)=O)c3[nH]2)cc1` [A.8.2] it was 100 to 1000 nM; in that of `Cc1c(-c2ccc(C(N)=O)c3[nH]c(-c4cnn(C)c4)nc23)cccc1-n1cnc2ccccc2c1=O` [Example 14, 2-(1-Methyl-1H-pyrazol-4-yl)-4-(2-methyl-3-(4-oxoquinazolin-3(4H)-yl)phenyl)-1H-benzo[d]imidazole-7-carboxamide], 100 to 1000 nM.
